Values after ≈ are worked out from the molar mass of the structure shown.
Tested on: S. aureus
Assay: Minimum inhibitory concentrations (MICs) for S. aureus of exemplary compounds (Table 2)
Type: cell-based
Conditions: Staphylococcus aureus, minimum inhibitory concentrations for S. aureus; read-out: MICs
Description: Exemplary compounds in accordance with the invention are listed in Table 2 with their minimum inhibitory concentrations (MICs) (μg/mL) for S. aureus:
Furthermore, the antibiotic compounds can be assayed for anti-proliferative or anti-infective properties on a cellular level. For example, where the target organism is a microorganism, the activity of compounds of interest can be assayed by growing the microorganisms of interest in media either containing or lacking the compound. Growth inhibition can be indicative that the molecule could be acting as a protein synthesis inhibitor. […] For this purpose, a panel of bacterial strains can be assembled to include a variety of target pathogenic species, some containing resistance mechanisms that have been characterized. Use of such a panel of organisms permits the determination of structure-activity relationships not only in regards to potency and spectrum, but also with a view to obviating resistance mechanisms. The assays can be performed in microtiter trays according to conventional methodologies as published by The National Committee for Clinical Laboratory Standards (NCCLS) guidelines (NCCLS. M7-A5-Methods for Dilution Antimicrobial Susceptibility Tests for Bacteria That Grow Aerobically; Approved Standard-Fifth Edition. NCCLS Document M100-S12/M7 (ISBN 1-56238-394-9)).

Compound	MIC [µg/mL]
CC(=O)NC[C@H]1CN(c2ccc(-c3ccc(Cn4nnc5c(=O)[nH]cnc54)cc3)c(F)c2)C(=O)O1 [Compound 1027, N-{3-[2-Fluoro-4′-(7-oxo-6,7-dihydro-[1,2,3]triazolo[4,5-d]pyrimidin-3-ylmethyl)-biphenyl-4-yl]-2-oxo-oxazolidin-5-(S)-ylmethyl}-acetamide]	1 (≈ 2.09 µM)
CC(=O)NC[C@H]1CN(c2ccc(-c3ccc(CN4CCN(CCO)CC4)cc3)c(F)c2)C(=O)O1 [Compound 1029, N-(3-{2-Fluoro-4′-[4-(2-hydroxy-ethyl)-piperazin-1-ylmethyl]-biphenyl-4-yl}-2-oxo-oxazolidin-5-(S)-ylmethyl)-acetamide]	2 (≈ 4.25 µM)
CC(=O)NC[C@H]1CN(c2ccc(-c3ccc(CN4CCC(CCO)CC4)cc3)c(F)c2)C(=O)O1 [Compound 1030, N-(3-{2-Fluoro-4′-[4-(2-hydroxy-ethyl)-piperidin-1-ylmethyl]-biphenyl-4-yl}-2-oxo-oxazolidin-5-(S)-ylmethyl)-acetamide]	2 (≈ 4.26 µM)
CC(=O)NC[C@H]1CN(c2ccc(-c3ccc([C@@H](N)Cn4ccnc4)cc3)c(F)c2)C(=O)O1 [Compound 1031, N-{3-[4′-(R)-(1-Amino-2-imidazol-1-yl-ethyl)-2-fluoro-biphenyl-4-yl]-2-oxo-oxazolidin-5-(S)-ylmethyl}-acetamide]	8 (≈ 18.3 µM)
NC[C@H]1CN(c2ccc(-c3ccc(Cn4cnnn4)cc3)c(F)c2)C(=O)O1 [Compound 1032, 5-(S)-Aminomethyl-3-(2-fluoro-4′-tetrazol-1-ylmethyl-biphenyl-4-yl)-oxazolidin-2-one]	32 (≈ 86.9 µM)
O=C(CCl)NC[C@H]1CN(c2ccc(-c3ccc(Cn4cnnn4)cc3)c(F)c2)C(=O)O1 [Compound 1033, 2-Chloro-N-[3-(2-fluoro-4′-tetrazol-1-ylmethyl-biphenyl-4-yl)-2-oxo-oxazolidin-5-(S)-ylmethyl]-acetamide]	0.25 (≈ 0.562 µM)
O=C(NC[C@H]1CN(c2ccc(-c3ccc(Cn4cnnn4)cc3)c(F)c2)C(=O)O1)C(Cl)Cl [Compound 1034, 2,2-Dichloro-N-[3-(2-fluoro-4′-tetrazol-1-ylmethyl-biphenyl-4-yl)-2-oxo-oxazolidin-5-(S)-ylmethyl]-acetamide]	0.5 (≈ 1.04 µM)
CC(=O)NC[C@H]1CN(c2ccc(-c3ccc(Cn4cnnn4)nc3)c(F)c2)C(=O)O1 [Compound 1035, N-{3-[3-Fluoro-4-(6-tetrazol-1-ylmethyl-pyridin-3-yl)-phenyl]-2-oxo-oxazolidin-5-(S)-ylmethyl}-acetamide]	0.5 (≈ 1.22 µM)
CC(=O)NC[C@H]1CN(c2ccc(-c3ccc(Cn4ccnn4)nc3)c(F)c2)C(=O)O1 [Compound 1036, N-{3-[3-Fluoro-4-(6-[1,2,3]triazol-1-ylmethyl-pyridin-3-yl)-phenyl]-2-oxo-oxazolidin-5-(S)-ylmethyl}-acetamide]	1 (≈ 2.44 µM)
CC(=O)NC[C@H]1CN(c2ccc(-c3ccc(CN4CCN(c5ncc(C(F)(F)F)cc5Cl)CC4)cc3)c(F)c2)C(=O)O1 [Compound 1038, N-(3-{4′-[4-(3-Chloro-5-trifluoromethyl-pyridin-2-yl)-piperazin-1-ylmethyl]-2-fluoro-biphenyl-4-yl}-2-oxo-oxazolidin-5-(S)-ylmethyl)-acetamide]	128 (≈ 211 µM)
CC(=O)NC[C@H]1CN(c2ccc(-c3ccc(Cn4cccn4)cc3)c(F)c2)C(=O)O1 [Compound 1043, N-[3-(2-Fluoro-4′-pyrazol-1-ylmethyl-biphenyl-4-yl)-2-oxo-oxazolidin-5-(S)-ylmethyl]-acetamide]	0.25 (≈ 0.612 µM)
CC(=O)NC[C@H]1CN(c2ccc(-c3ccc([C@H](O)CN4CCN(C=O)CC4)cc3)c(F)c2)C(=O)O1 [Compound 1044, N-(3-{2-Fluoro-4′-[2-(4-formyl-piperazin-1-yl)-1-(S)-hydroxy-ethyl]-biphenyl-4-yl}-2-oxo-oxazolidin-5-(S)-ylmethyl)-acetamide]	0.5 (≈ 1.03 µM)
CC(=O)NC[C@H]1CN(c2ccc(-c3ccc([C@H](CO)N4CCN(C=O)CC4)cc3)c(F)c2)C(=O)O1 [Compound 1045, N-(3-{2-Fluoro-4′-[1-(R)-(4-formyl-piperazin-1-yl)-2-hydroxy-ethyl]-biphenyl-4-yl}-2-oxo-oxazolidin-5-(S)-ylmethyl)-acetamide]	0.5 (≈ 1.03 µM)
CC(=O)NC[C@H]1CN(c2ccc(-c3ccc([C@H](O)Cn4ccnc4)cc3)c(F)c2)C(=O)O1 [Compound 1046, N-{3-[2-Fluoro-4′-(1-(S)-hydroxy-2-imidazol-1-yl-ethyl)-biphenyl-4-yl]-2-oxo-oxazolidin-5-(S)-ylmethyl}-acetamide]	1 (≈ 2.28 µM)
CC(=O)NC[C@H]1CN(c2cc(F)c(-c3ccc(Cn4cnnn4)cc3)c(F)c2)C(=O)O1 [Compound 1048, N-[3-(2,6-Difluoro-4′-tetrazol-1-ylmethyl-biphenyl-4-yl)-2-oxo-oxazolidin-5-(S)-ylmethyl]-acetamide]	1 (≈ 2.33 µM)
CCOC(=O)c1cnn(Cc2ccc(-c3ccc(N4C[C@H](CNC(C)=O)OC4=O)cc3F)cc2)c1 [Compound 1049, 1-{4′-[5-(S)-(Acetylamino-methyl)-2-oxo-oxazolidin-3-yl]-2′-fluoro-biphenyl-4-ylmethyl}-1H-pyrazole-4-carboxylic acid ethyl ester]	0.5 (≈ 1.04 µM)
CC(=O)NC[C@H]1CN(c2ccc(-c3ccc(Cn4cccc4)cc3)c(F)c2)C(=O)O1 [Compound 1054, N-[3-(2-Fluoro-4′-pyrrol-1-ylmethyl-biphenyl-4-yl)-2-oxo-oxazolidin-5-(S)-ylmethyl]-acetamide]	0.5 (≈ 1.23 µM)
CC(=O)NC[C@H]1CN(c2ccc(-c3ccc(Cn4ccc(C=O)c4)cc3)c(F)c2)C(=O)O1 [Compound 1055, N-{3-[2-Fluoro-4′-(3-formyl-pyrrol-1-ylmethyl)-biphenyl-4-yl]-2-oxo-oxazolidin-5-(S)-ylmethyl}-acetamide]	0.25 (≈ 0.574 µM)
CC(=O)NC[C@H]1CN(c2ccc(-c3ccc([C@H](O)Cn4ccnn4)cc3)c(F)c2)C(=O)O1 [Compound 1061, N-{3-[2-Fluoro-4′-(1-(S)-hydroxy-2-[1,2,3]triazol-1-yl-ethyl)-biphenyl-4-yl]-2-oxo-oxazolidin-5-(S)-ylmethyl}-acetamide]	1 (≈ 2.28 µM)
CC(=O)NC[C@H]1CN(c2ccc(-c3ccc([C@H](O)CN4CCC4)cc3)c(F)c2)C(=O)O1 [Compound 1062, N-{3-[4′-(2-Azetidin-1-yl-1-(S)-hydroxy-ethyl)-2-fluoro-biphenyl-4-yl]-2-oxo-oxazolidin-5-(S)-ylmethyl}-acetamide]	8 (≈ 18.7 µM)

The next lines start with the values.

MIC [µg/mL]	Compound
1 (≈ 2.28 µM)	CC(=O)NC[C@H]1CN(c2ccc(-c3ccc(Cn4cc(CO)nn4)cc3)c(F)c2)C(=O)O1 [Compound 1028, N-{3-[2-Fluoro-4′-(4-hydroxymethyl-[1,2,3]triazol-1-ylmethyl)-biphenyl-4-yl]-2-oxo-oxazolidin-5-(S)-ylmethyl}-acetamide]
0.5 (≈ 1.22 µM)	CC(=O)NC[C@H]1CN(c2ccc(-c3ccc(Cn4cncn4)cc3)c(F)c2)C(=O)O1 [Compound 1037, N-[3-(2-Fluoro-4′-[1,2,4]triazol-1-ylmethyl-biphenyl-4-yl)-2-oxo-oxazolidin-5-(S)-ylmethyl]-acetamide]
0.25 (≈ 0.609 µM)	CC(=O)NC[C@H]1CN(c2ccc(-c3ccc(Cn4cnnn4)cc3)c(F)c2)C(=O)O1 [Compound 1047, N-[3-(2-Fluoro-4′-tetrazol-1-ylmethyl-biphenyl-4-yl)-2-oxo-oxazolidin-5-(S)-ylmethyl]-acetamide]
2 (≈ 4.56 µM)	CC(=O)NC[C@H]1CN(c2ccc(-c3ccc(Cn4cnc(CO)c4)cc3)c(F)c2)C(=O)O1 [Compound 1050, N-{3-[2-Fluoro-4′-(4-hydroxymethyl-imidazol-1-ylmethyl)-biphenyl-4-yl]-2-oxo-oxazolidin-5-(S)-ylmethyl}-acetamide]
1 (≈ 2.21 µM)	CC(=O)NC[C@H]1CN(c2ccc(-c3ccc(Cn4cc(C(=O)O)cn4)cc3)c(F)c2)C(=O)O1 [Compound 1051, 1-{4′-[5-(S)-(Acetylamino-methyl)-2-oxo-oxazolidin-3-yl]-2′-fluoro-biphenyl-4-ylmethyl}-1H-pyrazole-4-carboxylic acid]
1 (≈ 2.37 µM)	CC(=O)NC[C@H]1CN(c2ccc(-c3ccc(Cn4cc(C)cn4)cc3)c(F)c2)C(=O)O1 [Compound 1052, N-{3-[2-Fluoro-4′-(4-methyl-pyrazol-1-ylmethyl)-biphenyl-4-yl]-2-oxo-oxazolidin-5-(S)-ylmethyl}-acetamide]
1 (≈ 2.36 µM)	CC(=O)NC[C@H]1CN(c2ccc(-c3ccc(Cn4ccc(N)n4)cc3)c(F)c2)C(=O)O1 [Compound 1053, N-{3-[4′-(3-Amino-pyrazol-1-ylmethyl)-2-fluoro-biphenyl-4-yl]-2-oxo-oxazolidin-5-(S)-ylmethyl}-acetamide]
0.25 (≈ 0.609 µM)	CC(=O)NC[C@H]1CN(c2ccc(-c3ccc(Cn4ncnn4)cc3)c(F)c2)C(=O)O1 [Compound 1056, N-[3-(2-Fluoro-4′-tetrazol-2-ylmethyl-biphenyl-4-yl)-2-oxo-oxazolidin-5-(S)-ylmethyl]-acetamide]
0.5 (≈ 1.18 µM)	CC(=O)NC[C@H]1CN(c2ccc(-c3ccc(Cn4nnnc4C)cc3)c(F)c2)C(=O)O1 [Compound 1058, N-{3-[2-Fluoro-4′-(5-methyl-tetrazol-1-ylmethyl)-biphenyl-4-yl]-2-oxo-oxazolidin-5-(S)-ylmethyl}-acetamide]
0.5 (≈ 1.18 µM)	CC(=O)NC[C@H]1CN(c2ccc(-c3ccc(Cn4nnc(C)n4)cc3)c(F)c2)C(=O)O1 [Compound 1059, N-{3-[2-Fluoro-4′-(5-methyl-tetrazol-2-ylmethyl)-biphenyl-4-yl]-2-oxo-oxazolidin-5-(S)-ylmethyl}-acetamide]

From patent publication US10471046B2, “Method for treating, preventing, or reducing the risk of skin infection” (Melinta Subsidiary Corp., priority 2014, dated 2019)
